Experiments:
[1] = biological target: T1, ATM (Homo sapiens, UniProt Q13315); assay: Enzymatic activity of ATM in γ-irradiated HepG2 cells, WB of ATM and substrate phosphorylation; format: cell-based
T1 construct: endogenous in cells; host or cells: HepG2
Description: FIG. 9: HepG2 cells were pre-incubated with DMSO, MW01 (5 μM) or the ATM inhibitor Ku55933 (10 μM) and irradiated. After 60 min cells were harvested and processed. Immunochemical staining of Western blotting membranes was done using indicated antibodies.

[2] = tested on: MEF cells; assay: Annexin V staining, flow cytometry, MEF cells; format: cell-based, mouse
Description: FIG. 16: (A) U2OS cells were pre-treated with DMSO or MW01 and irradiated. Cells were lysed 8 h post γ-IR and were used for western blotting and immunochemical staining. (B) HEK293 cells were pre-treated with DMSO or MW01 and irradiated. After 48 h cells were fixed and stained with crystal violet. Dissolved crystal violet was used for absorbance measurement in a visible light spectrophotometer at a wavelength of 595 nm. (C) HEK293 cells were pre-treated with DMSO or MW01 and irradiated. The percentage of viable cells within the population was calculated by exclusion of annexin V and propidium-iodide positive cells measured by flow cytometry. (D) MEF cells were pre-treated with DMSO or MW01 and irradiated. Cells were used for annexin V staining 24 h and 48 after γ-IR. Percentage of annexin V positive cell population was analysed using a flow cytometer. (E) Experiment done as shown in (D) but with HT1080 cells processed 8 h after irradiation. Statistical significance was calculated using students t-test.
Cells were washed with ice-cold PBS and detached from growing dishes using Trypsin/EDTA solution. Detached cells were centrifuged at 300×g for 5 min. Detection of early apoptotic cells was performed by staining with annexin V-FITC antibody according to manufacturer's instructions (eBioscience Annexin V-FITC Apoptosis detection Kit). Necroptotic and late apoptotic cells were stained by addition of propidium iodide (final concentration 1 μg/ml) prior to measurements.
The sensitising effect of MW01 on cells was tested in MEF cells with a low irradiation dose of 2 Gy, an amount cells are able to repair. Cells were pre-treated with MW01, irradiated and cells were analysed by annexin V staining 24 or 48 h after irradiation. After 24 h, the treatment of cells with MW01 led to an increase of annexin V positive cells of about 10%. […] Comparing the annexin V positive cells of MW01 treated and MW01/γ-IR co-treated samples, a sensitising effect for low γ-irradiation dose-induced apoptosis of about 12% was found (FIG. 16 D).

[3] = HepG2, γ-irradiation, 60 min, MW01 5 μM, Ku55933 10 μM

T1 sequence (Q13315 whole entry): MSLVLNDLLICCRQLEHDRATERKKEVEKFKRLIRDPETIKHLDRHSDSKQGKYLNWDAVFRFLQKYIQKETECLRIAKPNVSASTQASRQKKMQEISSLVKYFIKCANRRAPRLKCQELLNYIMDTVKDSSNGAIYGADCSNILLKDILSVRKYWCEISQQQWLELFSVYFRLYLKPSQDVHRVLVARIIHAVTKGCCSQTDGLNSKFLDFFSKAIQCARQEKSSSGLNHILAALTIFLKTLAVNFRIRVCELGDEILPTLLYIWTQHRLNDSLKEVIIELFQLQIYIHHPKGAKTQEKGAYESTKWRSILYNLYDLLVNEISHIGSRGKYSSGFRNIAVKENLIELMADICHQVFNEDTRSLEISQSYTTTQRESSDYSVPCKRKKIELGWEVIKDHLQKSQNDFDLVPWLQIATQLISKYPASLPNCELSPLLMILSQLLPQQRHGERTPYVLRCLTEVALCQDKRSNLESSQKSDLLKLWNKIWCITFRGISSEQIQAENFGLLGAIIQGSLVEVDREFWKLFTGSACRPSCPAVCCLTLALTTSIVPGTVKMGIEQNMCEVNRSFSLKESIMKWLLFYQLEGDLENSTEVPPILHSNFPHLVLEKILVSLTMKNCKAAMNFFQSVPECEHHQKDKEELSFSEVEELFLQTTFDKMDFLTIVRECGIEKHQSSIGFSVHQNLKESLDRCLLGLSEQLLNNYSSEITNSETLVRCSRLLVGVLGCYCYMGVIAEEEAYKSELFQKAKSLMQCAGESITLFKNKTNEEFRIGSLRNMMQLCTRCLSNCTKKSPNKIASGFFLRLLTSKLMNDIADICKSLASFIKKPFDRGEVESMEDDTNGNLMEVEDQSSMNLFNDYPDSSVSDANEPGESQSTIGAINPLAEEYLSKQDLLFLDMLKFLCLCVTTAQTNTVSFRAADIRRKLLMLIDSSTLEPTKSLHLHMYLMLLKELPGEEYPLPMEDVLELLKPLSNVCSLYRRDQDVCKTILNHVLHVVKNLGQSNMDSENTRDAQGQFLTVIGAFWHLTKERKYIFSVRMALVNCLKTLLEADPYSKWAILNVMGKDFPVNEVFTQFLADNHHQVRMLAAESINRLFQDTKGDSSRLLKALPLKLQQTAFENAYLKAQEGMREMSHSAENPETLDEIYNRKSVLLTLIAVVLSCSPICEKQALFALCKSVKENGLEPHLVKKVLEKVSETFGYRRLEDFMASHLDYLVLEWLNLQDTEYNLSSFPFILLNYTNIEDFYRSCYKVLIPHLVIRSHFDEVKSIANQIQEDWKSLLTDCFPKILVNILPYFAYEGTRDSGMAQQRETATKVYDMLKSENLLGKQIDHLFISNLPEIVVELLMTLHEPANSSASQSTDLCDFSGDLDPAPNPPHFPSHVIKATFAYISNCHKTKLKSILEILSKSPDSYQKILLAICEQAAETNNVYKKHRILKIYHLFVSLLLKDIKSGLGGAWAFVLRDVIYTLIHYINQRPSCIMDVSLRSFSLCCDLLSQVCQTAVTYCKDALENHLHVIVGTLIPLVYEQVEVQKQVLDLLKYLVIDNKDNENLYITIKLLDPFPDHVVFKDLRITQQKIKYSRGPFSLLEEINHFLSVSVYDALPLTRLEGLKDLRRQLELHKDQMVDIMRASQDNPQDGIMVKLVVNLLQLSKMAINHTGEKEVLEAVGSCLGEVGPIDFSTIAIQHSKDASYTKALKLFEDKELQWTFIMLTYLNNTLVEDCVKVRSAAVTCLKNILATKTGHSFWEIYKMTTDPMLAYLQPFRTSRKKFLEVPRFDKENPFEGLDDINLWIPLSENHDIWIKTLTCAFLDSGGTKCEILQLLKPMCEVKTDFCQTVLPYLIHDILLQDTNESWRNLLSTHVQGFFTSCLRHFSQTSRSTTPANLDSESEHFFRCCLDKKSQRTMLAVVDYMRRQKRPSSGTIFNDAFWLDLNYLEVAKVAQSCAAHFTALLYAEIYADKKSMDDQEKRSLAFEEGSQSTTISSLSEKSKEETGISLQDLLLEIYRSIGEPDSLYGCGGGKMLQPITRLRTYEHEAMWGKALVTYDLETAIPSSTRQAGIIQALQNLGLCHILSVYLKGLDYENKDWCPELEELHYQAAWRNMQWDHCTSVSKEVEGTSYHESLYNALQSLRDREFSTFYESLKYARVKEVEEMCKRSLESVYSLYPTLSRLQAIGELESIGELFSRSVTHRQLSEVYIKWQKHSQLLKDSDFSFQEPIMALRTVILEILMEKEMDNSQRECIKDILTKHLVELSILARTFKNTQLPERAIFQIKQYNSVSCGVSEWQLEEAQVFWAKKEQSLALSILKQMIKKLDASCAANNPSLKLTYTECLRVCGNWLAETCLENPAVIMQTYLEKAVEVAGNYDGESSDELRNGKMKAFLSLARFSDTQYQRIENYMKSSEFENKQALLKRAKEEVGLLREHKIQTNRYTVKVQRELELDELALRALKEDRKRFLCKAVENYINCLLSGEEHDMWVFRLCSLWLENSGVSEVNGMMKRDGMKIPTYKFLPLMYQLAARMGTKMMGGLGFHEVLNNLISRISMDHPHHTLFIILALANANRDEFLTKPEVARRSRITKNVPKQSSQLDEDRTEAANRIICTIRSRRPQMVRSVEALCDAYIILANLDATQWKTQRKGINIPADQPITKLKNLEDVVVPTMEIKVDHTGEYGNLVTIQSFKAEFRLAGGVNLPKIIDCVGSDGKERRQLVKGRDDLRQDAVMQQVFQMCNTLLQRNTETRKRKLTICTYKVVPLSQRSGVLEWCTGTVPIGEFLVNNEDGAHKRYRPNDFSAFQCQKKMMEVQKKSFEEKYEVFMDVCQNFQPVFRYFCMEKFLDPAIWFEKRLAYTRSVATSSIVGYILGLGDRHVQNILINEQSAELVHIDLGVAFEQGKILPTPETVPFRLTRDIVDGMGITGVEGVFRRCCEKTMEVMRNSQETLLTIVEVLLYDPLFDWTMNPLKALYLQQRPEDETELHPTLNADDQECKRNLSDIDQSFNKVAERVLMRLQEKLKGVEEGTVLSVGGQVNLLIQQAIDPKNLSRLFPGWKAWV

SMILES: COc1ccc2c(c1OC)c(=O)n1c3ccc(O)cc3c3ccnc2c31 [MW01, 12-hydroxy-6,7-dimethoxy-8H-benzo[c]indolo[3,2,1-ij][1,5]naphthyridin-8-one]
- ATM auto-phosphorylation and phosphorylation of the ATM substrates p53 and KAP1 [1, 3]: no effects
- phosphorylation state of p53bp1 [1, 3]: mild effects
- enzymatic activity of ATM ([1]; conclusion from auto-phosphorylation and substrate phosphorylation): not affected
- increase of annexin V positive cells ([2]; 24 h, without IR): about 10%
- sensitising effect for low γ-irradiation dose-induced apoptosis ([2]; MW01 vs MW01/γ-IR co-treated samples): about 12%
- annexin V staining of cells ([2]; after 2 Gy of γ-irradiation): circa 34%

Source: US11028084B2, “Selective inhibitors of gentotoxic steress-induced IKK/NF-κB pathways” (Max-Delbrück-Centrum für Molekulare Medizin in der …, priority 2016, dated 2021)
